Reference: the supplement of paper PMC3493320

System: NCI-H295R
Assay: IC50 (antiproliferative, ATP content)
Conditions: 48 h
Procedure, shortened: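 Adrenocortical carcinoma cells were plated at 1500 per well in 1536-well plates in serum-free DMEM with ITS supplement, left overnight, then given library compounds by pin transfer at 8 final concentrations spanning 0.6 nM to 46 µM and held 48 h at 37 °C, 5% CO2. ATP was measured as CellTiter-Glo luminescence after 20 min at room temperature and scaled between vehicle and positive-control wells. A four-parameter logistic model was fitted to each series. The IC50 was taken from these fits, and compounds without a concentration response were recorded as above the top dose.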

SMILES: O=C([C@@H]([C@]1=CC=CC=C1)N=C)N[C@@](C2=O)([H])[C@@](N2[C@H]3[C@@]([O-])=O)([H])SC3(C)C.[Na+]
- IC50: > 46 µM

SMILES: CCCCC(CC)COC(=O)c1ccccc1O (configuration not stated)
- IC50: > 46 µM

SMILES: CC1(C)O[C@@H]2C[C@H]3[C@@H]4CCC5=CC(=O)C=C[C@]5(C)[C@H]4[C@@H](O)C[C@]3(C)[C@]2(C(=O)CO)O1
- IC50: > 46 µM

SMILES: N=C1NCCC(C2NC(=O)/C(=C/NC(N)=O)NC(=O)C(CNC(=O)CC(N)CCCN)NC(=O)C(CO)NC(=O)C(N)CNC2=O)N1.O=S(=O)(O)O (configuration not stated)
- IC50: > 46 µM

SMILES: C=CC[N@@H+]1/C(=C/CO)[C@@H]2C[C@H]3[C@H]1CC[C@]31c3ccccc3N3C=C4[C@@H]5N(C=C2[C@H]31)c1ccccc1[C@@]51CC[C@H]2[C@H]1C[C@@H]4/C(=C\CO)[N@@H+]2CC=C.[Cl-].[Cl-]
- IC50: > 46 µM

SMILES: Cl.O=C(O)CC/C=C\CC[C@@H]1[C@@H](N2CCCCC2)[C@@H](O)C[C@@H]1OCc1ccc(-c2ccccc2)cc1
- IC50: > 46 µM

SMILES: O=C(C3=CC=CC=C3)O[C@@H]1C[C@H](CC2)N(C)[C@H]2[C@H]1[C@@](OC)=O.Cl
- IC50: > 46 µM

SMILES: CCCCNC(=O)NS(=O)(=O)c1ccc(N)cc1
- IC50: > 46 µM

SMILES: BrC=7Nc1cccc\6c1C=7C[C@@H]2C/6=C/[C@H](CN2C)C(=O)N[C@@]3(O[C@]5(O)N(C3=O)[C@@H](CC(C)C)C(=O)N4CCC[C@H]45)C(C)C
- IC50: > 46 µM

SMILES: O=C/C=C/c1ccccc1
- IC50: > 46 µM

SMILES: C[C@@H](Cc1ccccc1)NCCC(c1ccccc1)c1ccccc1.C[C@H](O)C(=O)O
- IC50: > 46 µM

SMILES: CC[C@H](C)[C@H](N)C1=N[C@H](C(=O)N[C@@H](CC(C)C)C(=O)N[C@H](CCC(=O)O)C(=O)N[C@H](C(=O)N[C@H]2CCCCNC(=O)[C@H](CC(N)=O)NC(=O)[C@@H](CC(=O)O)NC(=O)[C@H](Cc3cnc[nH]3)NC(=O)[C@@H](Cc3ccccc3)NC(=O)[C@H]([C@@H](C)CC)NC(=O)[C@@H](CCCN)NC2=O)[C@@H](C)CC)CS1
- IC50: > 46 µM

SMILES: COP(=S)(OC)Oc1ccc(SC)c(C)c1
- IC50: > 46 µM

SMILES: COc1cc(N)c(Cl)cc1C(=O)NC1CCN(Cc2ccccc2)CC1.O=C(O)/C=C\C(=O)O
- IC50: > 46 µM

SMILES: CN(C)CCn1nnnc1SCC1=C(C(=O)O)N2C(=O)[C@@H](NC(=O)Cc3csc(N)n3)[C@H]2SC1.Cl.Cl
- IC50: > 46 µM

SMILES: O=C(O)CCCC/C=C(\c1ccccc1)c1cccnc1
- IC50: > 46 µM

SMILES: NS(=O)(=O)c1cc2c(cc1Cl)NC(CC1CCCC1)NS2(=O)=O (configuration not stated)
- IC50: > 46 µM

SMILES: CCCCC[C@H](O)/C=C/[C@@H]1[C@@H](C/C=C\CCCC(=O)O)[C@@H](O)C[C@H]1O
- IC50: > 46 µM

SMILES: [Na+].C/C(C)=C\Cc1cc(ccc1O)C(=O)N\C3=C(/[O-])c4ccc(O[C@@H]2OC(C)(C)[C@H](OC)[C@@H](OC(N)=O)[C@H]2O)c(C)c4OC3=O
- IC50: > 46 µM

SMILES: OCC(=O)[C@@]2(O)CC[C@H]3[C@@H]4CC\C1=C\C(=O)CC[C@]1(C)[C@H]4[C@@H](O)C[C@]23C
- IC50: > 46 µM

SMILES: CC1=CCC2CC1C2(C)C (configuration not stated)
- IC50: > 46 µM

SMILES: O=C2C=1/N=C\NC=1N(C)C(=O)N2C
- IC50: > 46 µM

SMILES: NS(=O)(=O)c1cc2c(cc1Cl)N=C(CSCc1ccccc1)NS2(=O)=O
- IC50: > 46 µM

SMILES: [O-][n+]1cc[n+]([O-])c2ccccc21
- IC50: > 46 µM

SMILES: C#CCOC(C(=O)OCCN(C)C)(c1ccccc1)c1ccccc1.Cl
- IC50: > 46 µM

SMILES: COc1ccc2c3c1O[C@H]1[C@@H](O)C=C[C@H]4[C@@H](C2)NCC[C@@]341
- IC50: > 46 µM

SMILES: Cl.Nc1ccn([C@@H]2O[C@H](CO)[C@@H](O)C2(F)F)c(=O)n1
- IC50: > 46 µM

SMILES: COc1cc2nc(N(C)CCCNC(=O)C3CCCO3)nc(N)c2cc1OC.Cl (configuration not stated)
- IC50: > 46 µM

SMILES: C=CCc1ccc(O)c(OC)c1
- IC50: > 46 µM

SMILES: O=C([O-])[C@H](O)[C@@H](O)[C@H](O)[C@H](O)CO.[Na+]
- IC50: > 46 µM

SMILES: CNCCCC12CCC(c3ccccc31)c1ccccc12
- IC50: > 46 µM

SMILES: Cl.O=C1NCC2(CCN(CCc3ccccc3)CC2)O1
- IC50: > 46 µM

SMILES: CN1C(C)(C)CCCC1(C)C.O=C(O)[C@@H](O)[C@H](O)C(=O)O
- IC50: > 46 µM

SMILES: O=c1[nH]cnc2c1ncn2[C@H]1CC[C@@H](CO)O1
- IC50: > 46 µM

SMILES: CCN1CCC[C@H]1CNC(=O)c1c(OC)ccc(Br)c1OC
- IC50: > 46 µM

SMILES: O=C(O)C(N12)=[C@@]([C@@H]3OCCC3)S[C@]1([H])[C@]([C@@H](C)O)([H])C2=O
- IC50: > 46 µM

SMILES: N#Cc1nn(-c2c(Cl)cc(C(F)(F)F)cc2Cl)c(N)c1S(=O)C(F)(F)F (configuration not stated)
- IC50: > 46 µM

SMILES: O=C(O)c1cc(-c2ccc(F)cc2F)ccc1O
- IC50: > 46 µM

SMILES: [Na+].[O-]Cl
- IC50: > 46 µM

SMILES: COc1nc(C)nc(Cl)c1NC1=NCCN1
- IC50: > 46 µM

SMILES: CCCC(C)(COC(N)=O)COC(=O)NC(C)C (configuration not stated)
- IC50: > 46 µM

SMILES: O=C([C@@H]([C@]4=CC=CC=C4)CO)O[C@@H]2C[C@@H]3[C@H]1O[C@H]1[C@@H]([N@+](C)3C)C2
- IC50: > 46 µM

SMILES: Oc1ccc2c3c1O[C@H]1[C@@H](O)CC[C@@]4(O)[C@@H](C2)N(CC2CCC2)CC[C@]314
- IC50: > 46 µM

SMILES: CC(c1cc2ccccc2s1)N(O)C(N)=O (configuration not stated)
- IC50: > 46 µM

SMILES: NC(=O)CC[C@@H](N)C(=O)O
- IC50: > 46 µM

SMILES: COc3ccccc3N2CCN(CCCN\C1=C\C(=O)N(C)C(=O)N1C)CC2
- IC50: > 46 µM

SMILES: CCCCNCC(O)c1ccc(O)cc1 (configuration not stated)
- IC50: > 46 µM
